Data published in patent US9617267B2, “Compounds and methods for kinase modulation, and indications therefor” (Plexxikon Inc., priority 2009, dated 2017).
Read-outs that look alike come from different tables or passages of the source.

Legend:
[1] = target: CYP2D6 (Homo sapiens (Human), UniProt P10635); test: CYP enzyme inhibition, fluorescent substrate (AMMC); format: in vitro ADME; details: read-out: Cyp IC50 2D6
Outline: (§1)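 IC50 derived from loss of fluorescent metabolite across a 10-point 1:1 dilution series. CYP2D6: 1.5 pmol enzyme, 1.5 μM AMMC, 30 min at 37 °C, 409/530 nm; CYP1A2: 0.5 pmol, 5 μM CEC, 15 min, 409/460 nm. Compounds pre-incubated 10 min in NADPH-regenerating mix.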

[2] = target: CYP2C19 (Homo sapiens (Human), UniProt P33261); test: CYP enzyme inhibition, fluorescent substrate (CEC)
Outline: (§2)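 First, 100 mM DMSO stocks are diluted into acetonitrile, then twofold through co-factor mix for 10 points. Next, mixtures are preincubated 10 min at 37 °C.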

[3] = target: CYP2C9 (Homo sapiens (Human), UniProt P11712); test: CYP enzyme inhibition, fluorescent substrate (MFC)
Outline: as §2

[4] = target: CYP3A4(BQ) (Homo sapiens (Human), UniProt P08684); test: CYP enzyme inhibition, fluorescent substrate BQ
Outline: as §2

[5] = target: c-Raf-1 (Homo sapiens, UniProt P04049); test: c-Raf-1 kinase activity biochemical assay (AlphaScreen, biotin-MEK1 phosphorylation)
Outline: (§3)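 Compounds from a 0.1 mM DMSO stock were tested at 8 serially diluted points. Kinase reactions with 100 μM ATP (final) ran 45 min at room temperature, then were stopped with EDTA buffer containing anti-phospho-MEK1/2 antibody plus streptavidin donor and protein A acceptor beads.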

[6] = target: B-Raf (Homo sapiens (Human), UniProt P15056); test: B-Raf kinase activity biochemical assay (AlphaScreen, biotin-MEK1 phosphorylation); details: B-Raf
Outline: as §3

[7] = tested on: B-Raf; test: as above; details: for Biochemical activity ratio B/V600E: ratio of IC50 B-Raf / B-Raf V600E; for Biochemical activity ratio B/C: ratio of IC50 B-Raf / c-Raf-1
Outline: as §3

[8] = target: CYP1A2 (Homo sapiens (Human), UniProt P05177); test: CYP enzyme inhibition, fluorescent substrate (CEC)
Outline: as §1

[9] = Relative solubility by turbidity threshold concentration in aqueous buffers (pH 1.5, 4.5, 6.8, 7.4); format: physicochemical; details: for turbidity threshold (L, M, H) 1.4: pH 1.4 [sic] (method: SGF pH 1.5); for turbidity threshold (L, M, H) 4.5: pH 4.5 (SIF); for turbidity threshold (L, M, H) 6.8: pH 6.8 (SIF); for turbidity threshold (L, M, H) 7.4: pH 7.4 (HEPES)
Outline: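 Solubility class (high >250 μM, moderate 31.3–250 μM, low <31.3 μM) comes from the concentration where absorbance reaches a 0.01 threshold, averaged across 490/535/650 nm. Samples were compound dilutions from DMSO stock, 1 μL into 99 μL buffer at pH 1.5, 4.5, 6.8 or 7.4.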

[10] = target: CYP3A4(BFC) (Homo sapiens (Human), UniProt P08684); test: CYP enzyme inhibition, fluorescent substrate BFC
Outline: as §2

[11] = target: B-Raf V600E (Homo sapiens (Human), UniProt P15056, V600E); test: B-Raf V600E kinase activity biochemical assay (AlphaScreen, biotin-MEK1 phosphorylation); details: for IC50: B-Raf V600E; for Biochemical activity ratio V600E/C: ratio of IC50 B-Raf V600E / c-Raf-1
Outline: as §3

[12] = read-out: Cyp IC50 2C19, CYP2C19, substrate CEC
[13] = read-out: Cyp IC50 2C9, CYP2C9, substrate MFC
[14] = read-out: Cyp IC50 3A4(BQ), CYP3A4, substrate BQ
[15] = read-out: Cyp IC50 1A2, CYP1A2, substrate CEC
[16] = read-out: Cyp IC50 3A4(BFC), CYP3A4, substrate BFC

B-Raf V600E, sequence (P15056 whole entry V600E): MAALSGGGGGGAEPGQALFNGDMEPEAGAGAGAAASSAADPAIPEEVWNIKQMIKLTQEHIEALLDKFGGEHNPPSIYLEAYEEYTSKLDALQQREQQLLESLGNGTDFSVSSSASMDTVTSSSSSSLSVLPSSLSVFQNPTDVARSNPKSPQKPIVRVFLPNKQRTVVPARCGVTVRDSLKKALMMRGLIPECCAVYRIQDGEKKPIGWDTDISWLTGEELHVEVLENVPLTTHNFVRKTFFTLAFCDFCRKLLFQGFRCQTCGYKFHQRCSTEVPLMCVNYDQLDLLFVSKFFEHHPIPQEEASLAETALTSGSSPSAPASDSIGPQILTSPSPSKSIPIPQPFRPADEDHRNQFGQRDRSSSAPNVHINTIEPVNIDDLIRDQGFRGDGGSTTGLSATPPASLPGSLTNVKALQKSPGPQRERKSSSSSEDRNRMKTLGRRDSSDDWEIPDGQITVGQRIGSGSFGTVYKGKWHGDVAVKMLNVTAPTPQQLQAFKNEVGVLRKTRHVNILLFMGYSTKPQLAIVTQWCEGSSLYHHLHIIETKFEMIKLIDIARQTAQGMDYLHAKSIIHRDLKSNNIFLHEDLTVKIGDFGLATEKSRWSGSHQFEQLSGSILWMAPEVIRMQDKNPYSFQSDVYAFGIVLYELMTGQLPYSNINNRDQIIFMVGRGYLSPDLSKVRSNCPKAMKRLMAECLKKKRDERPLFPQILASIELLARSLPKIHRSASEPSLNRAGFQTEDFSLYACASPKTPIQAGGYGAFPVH
CYP2D6, sequence (P10635 whole entry): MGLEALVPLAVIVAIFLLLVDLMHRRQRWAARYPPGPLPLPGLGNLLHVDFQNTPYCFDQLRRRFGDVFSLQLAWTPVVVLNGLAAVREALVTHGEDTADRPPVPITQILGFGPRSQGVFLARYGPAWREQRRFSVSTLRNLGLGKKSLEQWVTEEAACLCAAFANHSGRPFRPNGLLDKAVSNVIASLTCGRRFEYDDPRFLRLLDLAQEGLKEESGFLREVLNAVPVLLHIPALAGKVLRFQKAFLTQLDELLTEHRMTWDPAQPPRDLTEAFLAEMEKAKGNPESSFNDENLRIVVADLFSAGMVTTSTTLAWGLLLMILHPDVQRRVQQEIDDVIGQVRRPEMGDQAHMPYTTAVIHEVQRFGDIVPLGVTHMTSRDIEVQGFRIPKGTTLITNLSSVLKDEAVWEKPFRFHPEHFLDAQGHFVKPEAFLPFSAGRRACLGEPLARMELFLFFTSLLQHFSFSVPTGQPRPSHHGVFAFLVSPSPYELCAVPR
CYP2C19, sequence (P33261 whole entry): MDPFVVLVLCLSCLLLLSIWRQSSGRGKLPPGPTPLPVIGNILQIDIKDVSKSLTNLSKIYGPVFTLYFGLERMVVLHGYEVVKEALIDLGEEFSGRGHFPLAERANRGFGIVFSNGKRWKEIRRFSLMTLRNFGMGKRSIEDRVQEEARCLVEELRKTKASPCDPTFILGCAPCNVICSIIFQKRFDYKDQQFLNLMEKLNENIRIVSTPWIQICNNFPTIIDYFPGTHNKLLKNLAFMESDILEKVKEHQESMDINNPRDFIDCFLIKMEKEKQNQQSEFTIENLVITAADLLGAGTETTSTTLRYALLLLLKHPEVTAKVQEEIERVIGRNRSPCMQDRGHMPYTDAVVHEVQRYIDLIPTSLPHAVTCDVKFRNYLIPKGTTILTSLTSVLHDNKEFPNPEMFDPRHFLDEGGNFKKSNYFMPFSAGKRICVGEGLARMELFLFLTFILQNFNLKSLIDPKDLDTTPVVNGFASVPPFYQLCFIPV
c-Raf-1, sequence (P04049 whole entry, looked up): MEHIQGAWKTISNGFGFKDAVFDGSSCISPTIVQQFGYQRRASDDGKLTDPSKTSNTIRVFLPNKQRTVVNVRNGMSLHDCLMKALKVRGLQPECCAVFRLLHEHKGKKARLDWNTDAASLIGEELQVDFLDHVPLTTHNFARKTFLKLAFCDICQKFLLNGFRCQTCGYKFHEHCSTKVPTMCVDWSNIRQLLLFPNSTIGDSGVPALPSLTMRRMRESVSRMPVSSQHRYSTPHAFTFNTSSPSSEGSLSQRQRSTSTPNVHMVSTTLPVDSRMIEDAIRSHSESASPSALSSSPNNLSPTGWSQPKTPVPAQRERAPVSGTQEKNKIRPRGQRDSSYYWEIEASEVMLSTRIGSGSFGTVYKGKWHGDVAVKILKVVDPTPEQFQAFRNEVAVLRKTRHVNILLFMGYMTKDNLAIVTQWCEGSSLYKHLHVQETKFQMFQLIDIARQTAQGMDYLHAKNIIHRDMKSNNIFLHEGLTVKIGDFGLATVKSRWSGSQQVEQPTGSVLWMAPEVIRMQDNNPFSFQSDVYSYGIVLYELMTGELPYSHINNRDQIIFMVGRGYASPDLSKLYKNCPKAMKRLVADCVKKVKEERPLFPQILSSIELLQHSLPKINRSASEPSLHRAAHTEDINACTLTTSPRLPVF
CYP2C9, sequence (P11712 whole entry): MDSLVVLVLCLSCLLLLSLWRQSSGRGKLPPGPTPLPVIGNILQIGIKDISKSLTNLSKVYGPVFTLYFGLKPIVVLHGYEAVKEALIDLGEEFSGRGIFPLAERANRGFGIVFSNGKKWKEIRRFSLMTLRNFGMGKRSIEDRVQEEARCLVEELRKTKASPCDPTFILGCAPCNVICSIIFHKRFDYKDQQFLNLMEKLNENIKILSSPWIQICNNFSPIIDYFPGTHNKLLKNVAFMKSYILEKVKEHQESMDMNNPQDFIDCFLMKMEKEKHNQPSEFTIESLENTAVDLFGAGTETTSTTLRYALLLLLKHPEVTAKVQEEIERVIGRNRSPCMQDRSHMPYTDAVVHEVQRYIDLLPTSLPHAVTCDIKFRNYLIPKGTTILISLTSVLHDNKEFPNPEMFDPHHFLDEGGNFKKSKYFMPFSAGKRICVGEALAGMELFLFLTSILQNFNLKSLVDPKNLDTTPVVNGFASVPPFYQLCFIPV
CYP1A2, sequence (P05177 whole entry): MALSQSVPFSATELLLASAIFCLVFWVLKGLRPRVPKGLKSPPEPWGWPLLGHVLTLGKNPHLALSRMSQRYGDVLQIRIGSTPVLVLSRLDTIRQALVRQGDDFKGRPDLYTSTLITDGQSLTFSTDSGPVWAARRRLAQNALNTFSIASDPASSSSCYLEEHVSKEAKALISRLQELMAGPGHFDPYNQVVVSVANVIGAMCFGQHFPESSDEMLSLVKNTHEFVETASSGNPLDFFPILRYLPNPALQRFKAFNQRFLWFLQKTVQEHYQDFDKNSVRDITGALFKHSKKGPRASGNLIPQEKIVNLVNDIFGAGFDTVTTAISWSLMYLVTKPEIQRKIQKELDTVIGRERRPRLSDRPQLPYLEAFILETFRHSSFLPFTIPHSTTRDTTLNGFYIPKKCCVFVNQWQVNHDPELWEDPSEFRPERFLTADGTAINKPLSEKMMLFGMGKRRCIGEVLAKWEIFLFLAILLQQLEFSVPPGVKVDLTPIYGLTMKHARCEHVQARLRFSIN
B-Raf (Homo sapiens (Human), UniProt P15056), sequence (P15056 whole entry): as the sequence (P15056 whole entry V600E) above, with E600V counted along it
CYP3A4(BQ), sequence (P08684 whole entry): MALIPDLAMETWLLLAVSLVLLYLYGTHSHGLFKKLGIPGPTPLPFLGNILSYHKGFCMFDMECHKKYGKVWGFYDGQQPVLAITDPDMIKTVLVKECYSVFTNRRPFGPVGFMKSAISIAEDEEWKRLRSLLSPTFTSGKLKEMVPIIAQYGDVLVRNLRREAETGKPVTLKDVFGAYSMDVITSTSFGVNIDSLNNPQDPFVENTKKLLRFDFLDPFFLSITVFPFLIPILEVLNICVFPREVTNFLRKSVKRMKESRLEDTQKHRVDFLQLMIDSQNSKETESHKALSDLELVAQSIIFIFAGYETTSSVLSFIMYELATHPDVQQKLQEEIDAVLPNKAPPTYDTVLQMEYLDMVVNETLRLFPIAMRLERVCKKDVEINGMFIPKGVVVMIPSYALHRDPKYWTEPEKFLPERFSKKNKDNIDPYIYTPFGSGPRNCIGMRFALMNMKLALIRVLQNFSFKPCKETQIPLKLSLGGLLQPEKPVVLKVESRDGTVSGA
CYP3A4(BFC), sequence (P08684 whole entry): as above

| SMILES | IC50 [1] | IC50 [2] | IC50 [3] | IC50 [4] | IC50 [5] | IC50 [6] | Biochemical activity ratio B/V600E [7] | Biochemical activity ratio B/C [7] | IC50 [8] | turbidity threshold (L, M, H) 1.4 [9] | turbidity threshold (L, M, H) 4.5 [9] | turbidity threshold (L, M, H) 6.8 [9] | turbidity threshold (L, M, H) 7.4 [9] | IC50 [10] | IC50 [11] | Biochemical activity ratio V600E/C [11] | IC50 [2, 12] | IC50 [4, 14] | IC50 [10, 16] | IC50 ([8]; human, 15 min) | other results |
| --- | --- | --- | --- | --- | --- | --- | --- | --- | --- | --- | --- | --- | --- | --- | --- | --- | --- | --- | --- | --- | --- |
| CCCS(=O)(=O)Nc1ccc(F)c(C(=O)c2c[nH]c3ncc(C)c(Cl)c23)c1F [P-2001, Propane-1-sulfonic acid [3-(4-chloro-5-methyl-1H-pyrrolo[2,3-b]pyridine-3-carbonyl)-2,4-difluoro-phenyl]-amide] | > 10 µM | 5 to 10 µM | > 10 µM | > 10 µM | < 0.1 µM | < 0.1 µM | 0.1-10 | 0.1-10 | > 10 µM | M (moderate solubility if the threshold concentration is 31.3 μM to 250 μM) | M (moderate solubility if the threshold concentration is 31.3 μM to 250 μM) | M (moderate solubility if the threshold concentration is 31.3 μM to 250 μM) | M (moderate solubility if the threshold concentration is 31.3 μM to 250 μM) | > 10 µM | < 0.1 µM | 0.1-10 |  |  |  |  |  |
| CCCS(=O)(=O)Nc1ccc(F)c(C(=O)c2c[nH]c3ncc(Cl)c(C)c23)c1F [P-2008, Propane-1-sulfonic acid [3-(5-chloro-4-methyl-1H-pyrrolo[2,3-b]pyridine-3-carbonyl)-2,4-difluoro-phenyl]-amide] | > 10 µM | 5 to 10 µM | 5 to 10 µM | > 10 µM | < 0.1 µM | < 0.1 µM | 0.1-10 | 0.1-10 | > 10 µM | L (low solubility if the threshold concentration is <31.3 μM) | M (moderate solubility if the threshold concentration is 31.3 μM to 250 μM) | L (low solubility if the threshold concentration is <31.3 μM) | M (moderate solubility if the threshold concentration is 31.3 μM to 250 μM) | > 10 µM | < 0.1 µM | 0.1-10 |  |  |  |  |  |
| CCCS(=O)(=O)Nc1ccc(F)c(C(=O)c2c[nH]c3ncnc(NC4CCOCC4)c23)c1F [P-1047, Propane-1-sulfonic acid {2,4-difluoro-3-[4-(tetrahydro-pyran-4-ylamino)-7H-pyrrolo[2,3-d]pyrimidine-5-carbonyl]-phenyl}-amide] | > 10 µM |  |  |  | < 0.1 µM | < 0.1 µM | 0.1-10 | >10 |  | M (moderate solubility if the threshold concentration is 31.3 μM to 250 μM) | L (low solubility if the threshold concentration is <31.3 μM) | L (low solubility if the threshold concentration is <31.3 μM) | L (low solubility if the threshold concentration is <31.3 μM) |  | < 0.1 µM | >10 | > 10 µM | > 10 µM | > 10 µM |  | IC50 [3, 13]: > 10 µM; IC50 [8, 15]: > 10 µM |
| O=C(c1c(F)ccc(NS(=O)(=O)c2ccc(C(F)(F)F)cc2)c1F)c1c[nH]c2ncnc(NC3CCOC3)c12 (centres unmarked) [P-1054, N-{2,4-Difluoro-3-[4-(tetrahydro-furan-3-ylamino)-7H-pyrrolo[2,3-d]pyrimidine-5-carbonyl]-phenyl}-4-trifluoromethyl-benzenesulfonamide] | > 10 µM |  | 5 to 10 µM |  | < 0.1 µM | < 0.1 µM | 0.1-10 | 0.1-10 |  | M (moderate solubility if the threshold concentration is 31.3 μM to 250 μM) | L (low solubility if the threshold concentration is <31.3 μM) | L (low solubility if the threshold concentration is <31.3 μM) | L (low solubility if the threshold concentration is <31.3 μM) |  | < 0.1 µM | >10 | > 10 µM | > 10 µM | > 10 µM | > 10 µM |  |
| COc1ncnc2[nH]cc(C(=O)c3c(F)ccc(NS(=O)(=O)c4ccc(C(C)C)cc4)c3F)c12 [P-1010, N-[2,4-Difluoro-3-(4-methoxy-7H-pyrrolo[2,3-d]pyrimidine-5-carbonyl)-phenyl]-4-isopropyl-benzenesulfonamide] | > 10 µM | 5 to 10 µM | 5 to 10 µM |  | > 0.1 µM | > 0.1 µM | 0.1-10 | 0.1-10 |  | L (low solubility if the threshold concentration is <31.3 μM) | L (low solubility if the threshold concentration is <31.3 μM) | L (low solubility if the threshold concentration is <31.3 μM) | M (moderate solubility if the threshold concentration is 31.3 μM to 250 μM) |  | > 0.1 µM | >10 |  | > 10 µM | > 10 µM |  | IC50 [8, 15]: > 10 µM |
| Cc1ncnc2[nH]cc(C(=O)c3c(F)ccc(NS(=O)(=O)CC(C)C)c3F)c12 [P-1003, 2-Methyl-propane-1-sulfonic acid [2,4-difluoro-3-(4-methyl-7H-pyrrolo[2,3-d]pyrimidine-5-carbonyl)-phenyl]-amide] | > 10 µM |  | 5 to 10 µM | 5 to 10 µM | < 0.1 µM | > 0.1 µM | >10 | >10 |  | H (high solubility if the threshold concentration is >250 μm) | M (moderate solubility if the threshold concentration is 31.3 μM to 250 μM) | M (moderate solubility if the threshold concentration is 31.3 μM to 250 μM) | M (moderate solubility if the threshold concentration is 31.3 μM to 250 μM) |  | < 0.1 µM | 0.1-10 | > 10 µM |  | > 10 µM | > 10 µM |  |
| O=C(c1c(F)ccc(NS(=O)(=O)c2ccc(C(F)(F)F)cc2)c1F)c1c[nH]c2ncnc(NCCO)c12 [P-1043, N-{2,4-Difluoro-3-[4-(2-hydroxy-ethylamino)-7H-pyrrolo[2,3-d]pyrimidine-5-carbonyl]-phenyl}-4-trifluoromethyl-benzenesulfonamide] | > 10 µM |  |  |  | < 0.1 µM | < 0.1 µM | 0.1-10 | >10 |  | H (high solubility if the threshold concentration is >250 μm) | M (moderate solubility if the threshold concentration is 31.3 μM to 250 μM) | M (moderate solubility if the threshold concentration is 31.3 μM to 250 μM) | M (moderate solubility if the threshold concentration is 31.3 μM to 250 μM) |  | > 0.1 µM | >10 | > 10 µM | > 10 µM | > 10 µM | > 10 µM | IC50 [3, 13]: > 10 µM |
| N#Cc1c(Cl)cnc2[nH]cc(C(=O)c3c(F)ccc(NS(=O)(=O)c4ccc(C(F)(F)F)cc4)c3F)c12 [P-2010, N-[3-(5-Chloro-4-cyano-1H-pyrrolo[2,3-b]pyridine-3-carbonyl)-2,4-difluoro-phenyl]-4-trifluoromethyl-benzenesulfonamide] | < 5 µM | > 10 µM | 5 to 10 µM | > 10 µM | < 0.1 µM | < 0.1 µM | 0.1-10 | >10 | > 10 µM | L (low solubility if the threshold concentration is <31.3 μM) | L (low solubility if the threshold concentration is <31.3 μM) | L (low solubility if the threshold concentration is <31.3 μM) | M (moderate solubility if the threshold concentration is 31.3 μM to 250 μM) | > 10 µM | < 0.1 µM | >10 |  |  |  |  |  |
